Columns and labels:
[1] = biological target: CYP2C9 (Homo sapiens, UniProt P11712); experiment: CYP activity in perfused liver tissue, diclofenac substrate
[2] = biological target: CYP3A4 (Homo sapiens, UniProt P08684); experiment: CYP activity in perfused liver tissue, midazolam substrate
[3] = initial 30-min interval, dropped continuously thereafter
[4] = late (1-6 h), cirrhotic vs. non-cirrhotic liver

CYP2C9, sequence (P11712 whole entry, the tested form may be a part): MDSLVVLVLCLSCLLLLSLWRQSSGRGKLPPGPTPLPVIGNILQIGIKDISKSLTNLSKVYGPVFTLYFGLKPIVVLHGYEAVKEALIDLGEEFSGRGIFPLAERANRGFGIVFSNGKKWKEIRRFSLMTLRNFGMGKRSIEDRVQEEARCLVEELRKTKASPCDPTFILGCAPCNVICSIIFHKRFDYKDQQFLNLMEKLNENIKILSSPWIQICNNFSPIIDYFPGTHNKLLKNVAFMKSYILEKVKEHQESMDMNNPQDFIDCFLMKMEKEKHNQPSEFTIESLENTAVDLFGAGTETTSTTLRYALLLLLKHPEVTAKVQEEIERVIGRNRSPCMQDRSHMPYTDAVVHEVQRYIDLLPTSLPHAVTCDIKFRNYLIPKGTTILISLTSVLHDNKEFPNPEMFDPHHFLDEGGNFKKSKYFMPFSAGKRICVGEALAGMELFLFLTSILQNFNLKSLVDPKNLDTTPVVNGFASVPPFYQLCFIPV
CYP3A4, sequence (P08684 whole entry, the tested form may be a part): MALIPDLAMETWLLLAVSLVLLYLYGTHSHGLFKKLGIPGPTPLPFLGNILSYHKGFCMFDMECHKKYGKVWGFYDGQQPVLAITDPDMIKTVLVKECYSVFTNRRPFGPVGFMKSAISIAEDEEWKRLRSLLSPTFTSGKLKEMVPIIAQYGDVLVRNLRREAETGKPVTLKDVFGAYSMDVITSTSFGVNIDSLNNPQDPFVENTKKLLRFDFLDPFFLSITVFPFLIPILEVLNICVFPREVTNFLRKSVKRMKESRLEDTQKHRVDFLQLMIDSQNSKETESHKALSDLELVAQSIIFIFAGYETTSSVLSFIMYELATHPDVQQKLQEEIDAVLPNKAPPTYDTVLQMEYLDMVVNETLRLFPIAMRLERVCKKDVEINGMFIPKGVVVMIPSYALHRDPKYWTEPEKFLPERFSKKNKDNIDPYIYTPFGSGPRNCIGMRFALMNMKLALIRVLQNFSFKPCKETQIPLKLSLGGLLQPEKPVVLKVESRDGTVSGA

Question: Which “formation of phase-I metabolite” value [1, 3] does the source give for O=C(O)Cc1ccccc1Nc1c(Cl)cc(O)cc1Cl [OH-diclofenac, 4'-hydroxydiclofenac] here?
Answer: Its value is “formed quite rapidly”.

Question: What about the “AUC of phase-I product, CL tissue higher than NC tissue” value [1, 4] of the same compound?
Answer: Its value is 26.9%.

Question: For OCc1ncc2n1-c1ccc(Cl)cc1C(c1ccccc1F)=NC2 [OH-midazolam, 1'-hydroxymidazolam], which “formation of phase-I metabolite” value [2, 3] is on record?
Answer: Its value is “formed quite rapidly”.

Question: And the “AUC of phase-I product, CL tissue higher than NC tissue” value [2, 4]?
Answer: Its value is 53.8%.
